The values below come from patent publication US7208502B2, “Methods of treating conditions associated with an Edg-3 receptor” (Maniv Energy Capital, priority 2002, dated 2007).

“Also recorded” adds a separate entry of the source.

In experiment [1] the target is T1, Edg-1 (Homo sapiens, UniProt P21453).
T1 construct: expressed in transfected cells; host or cells: HTC rat hepatoma cells
As to the kind of experiment: Intracellular calcium assay, S1P-stimulated, HTC cells expressing Edg-1. Format: cell-based. As to conditions: concentrations as high as 20 µM.

For experiment [2], the target named is T2, Histamine H1, Central (Cavia porcellus, UniProt P31389).
T2 construct: from tissue; host or cells: guinea pig cerebellum
In words: Radioligand binding assay, 3H Pyrilamine. Particulars: 10 μM; significance criteria ≧50% of max stimulation or inhibition. On the set-up: species or system Guinea pig. Here is the method: (§1) In order to test the selectivity of compounds, various enzyme assays as well as radioligand binding assays were performed using numerous non-Edg receptor targets as listed below.
(§2) A radioligand binding assay was performed using adrenergic α1 according to the method of Greengrass and Bremner 1979, Eur. J. Pharmacol. 55:323–326. A radioligand binding assay was performed using adrenergic α2 according to the method of Boyajian and Leslie, 1987, J. Pharmacol. Exp. Ther. 241:1092–1098. A radioligand binding assay was performed using adrenergic β according to the method of Feve et al., 1994, Proc. Natl. Acad. Sci. USA 91:5677–5681. A radioligand binding assay was performed using angiotensin AT2 according to the method of Whitebread et al., 1991, Biochem. Biophys. Res. Comm. 181:1365–1371. A radioligand binding assay was performed using calcium channel Type L, dihydropyridine according to the method of Ehlert et al., 1982, Life Sci. 30:2191–2202. A radioligand binding assay was performed using dopamine D2L according to the method of Bunzo et al., 1988, Nature 336:783–787. A radioligand binding assay was performed using endothelin ETA according to the method of Mihara et al., 1994, J. Phrmacol. Exp Ther. 268:1122–1127. A radioligand binding assay was performed using histamine H1 Central according to the method of Hill et al., 1978, J. Neurochem. 31:997–1004. […]
(§3) Quantitation Method: Radioligand Binding […]

The target of experiment [3] is T3, human Edg-3 receptors (Homo sapiens, UniProt Q99500).
T3 construct: expressed in transfected cells; host or cells: HTC rat hepatoma cells
In words: Intracellular calcium (FLIPR) assay, S1P-stimulated, HTC cells expressing Edg-3. Particulars: HTC cells expressing human Edg-3 receptors; FIG. 1. Type of experiment: cell-based. From the text: Specific assays for Edg-3 receptor activity are known to those of skill in the art. For example, cells expressing Edg-3 receptors can be contacted with a membrane-permeant calcium sensitive dye such as Fluo-4 AM or a proprietary calcium dye loading kit (e.g., FLIPR Calcium Assay kit, Molecular Devices, Sunnyvale, Calif.). Intracellular calcium is capable of binding to the dye and emitting fluorescent radiation when illuminated at the appropriate wavelength. The cells can thus be illuminated an appropriate wavelength for the dye and any emitting light can be captured by a cooled CCD camera. Changes in fluorescence indicate changes in intracellular calcium resulting from the activation of an Edg-3 receptor. Such changes can be measured advantageously in whole cells in “real-time” (Berridge et al., Nature Reviews 2000, 1:11–21). […]
[…] such as Edg-3, couple to calcium effector pathways, and result in increases in intracellular calcium following receptor activation (An, 1998, J. Cell Biochem. Supp 30–31:147–157). This biological response lends itself to a very efficient, high-throughput screen using a Fluorescence Imaging Plate Reader (FLIPR; Molecular Devices, Sunnyvale, Calif.). The FLIPR system is a real-time, cell-based assay system with continuous fluorescence detection using a cooled CCD camera. […]
On the technique in general: A change in cytosolic calcium serves as a functional read-out for many receptors and channels.

The test system of experiment [4] is Calcium Channel Type L, Dihydropyridine. In words: Radioligand binding assay, 3H Nitrendipine. Further details: species or system Wistar Rat. As to conditions: 10 μM; significance criteria ≧50% of max stimulation or inhibition. As for the experimental part:
as §1, §2, §3

The target of experiment [5] is T4, Edg-2 (Homo sapiens, UniProt Q92633).
T4 construct: expressed in transfected cells; host or cells: HTC rat hepatoma cells
In words: Intracellular calcium assay, LPA-stimulated, HTC cells expressing Edg-2. Type of experiment: cell-based. As to conditions: concentrations as high as 20 µM.

In experiment [6] the target is T5, Edg-5 (Homo sapiens, UniProt O95136).
T5 construct: expressed in transfected cells; host or cells: HTC rat hepatoma cells
As to the kind of experiment: Intracellular calcium assay, S1P-stimulated, HTC cells expressing Edg-5. Type of experiment: cell-based. Particulars: concentrations as high as 20 µM.

Experiment [7] has as its target T6, Edg-8 (Homo sapiens, UniProt Q9H228).
T6 construct: expressed in transfected cells; host or cells: HTC rat hepatoma cells
As to the kind of experiment: Intracellular calcium assay, S1P-stimulated, HTC cells expressing Edg-8. Format: cell-based. Particulars: concentrations as high as 20 µM.

Experiment [8] deals with Adrenergic β. In words: Radioligand binding assay, 3H Dihydroaplenolol. On the set-up: species or system Wistar rat. Particulars: 10 μM; significance criteria ≧50% of max stimulation or inhibition. Here is the method:
as §1, §2, §3

The target in experiment [9] is T7, Edg-7 (Homo sapiens, UniProt Q9UBY5).
T7 construct: expressed in transfected cells; host or cells: HTC rat hepatoma cells
T7 sequence (Q9UBY5 1-353): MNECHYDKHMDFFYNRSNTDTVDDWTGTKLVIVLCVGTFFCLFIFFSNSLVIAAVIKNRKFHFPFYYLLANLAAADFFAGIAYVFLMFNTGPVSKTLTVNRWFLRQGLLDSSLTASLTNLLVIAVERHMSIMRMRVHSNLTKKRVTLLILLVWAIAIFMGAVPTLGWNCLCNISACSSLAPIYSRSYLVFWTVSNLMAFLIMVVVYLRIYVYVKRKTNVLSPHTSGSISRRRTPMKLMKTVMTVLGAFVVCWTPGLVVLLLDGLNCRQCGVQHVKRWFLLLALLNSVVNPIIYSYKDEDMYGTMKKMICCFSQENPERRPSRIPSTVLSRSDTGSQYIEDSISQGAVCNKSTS
In words: Intracellular calcium assay, LPA-stimulated, HTC cells expressing Edg-7. Type of experiment: cell-based. As to conditions: concentrations as high as 20 µM.

T3 sequence (Q99500 whole entry): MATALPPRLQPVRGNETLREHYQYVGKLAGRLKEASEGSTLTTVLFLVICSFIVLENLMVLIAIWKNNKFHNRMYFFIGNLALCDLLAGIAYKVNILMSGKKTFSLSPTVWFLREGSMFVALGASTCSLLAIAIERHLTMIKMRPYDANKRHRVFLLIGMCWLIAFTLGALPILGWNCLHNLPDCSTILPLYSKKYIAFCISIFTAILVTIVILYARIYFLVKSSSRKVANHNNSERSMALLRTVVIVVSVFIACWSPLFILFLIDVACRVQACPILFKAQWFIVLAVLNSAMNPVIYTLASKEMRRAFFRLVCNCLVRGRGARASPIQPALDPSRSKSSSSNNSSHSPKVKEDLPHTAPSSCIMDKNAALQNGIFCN
T4 sequence (Q92633 whole entry): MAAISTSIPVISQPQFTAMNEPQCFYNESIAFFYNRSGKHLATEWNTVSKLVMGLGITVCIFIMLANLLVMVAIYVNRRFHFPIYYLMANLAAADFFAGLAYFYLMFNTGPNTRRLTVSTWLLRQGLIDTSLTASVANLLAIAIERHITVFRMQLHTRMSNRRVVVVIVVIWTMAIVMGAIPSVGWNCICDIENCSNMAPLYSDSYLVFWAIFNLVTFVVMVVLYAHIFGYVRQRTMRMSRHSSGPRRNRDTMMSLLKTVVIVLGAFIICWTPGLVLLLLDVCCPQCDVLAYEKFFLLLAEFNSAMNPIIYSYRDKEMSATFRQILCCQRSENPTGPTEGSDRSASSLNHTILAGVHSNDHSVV
T1 sequence (P21453 whole entry): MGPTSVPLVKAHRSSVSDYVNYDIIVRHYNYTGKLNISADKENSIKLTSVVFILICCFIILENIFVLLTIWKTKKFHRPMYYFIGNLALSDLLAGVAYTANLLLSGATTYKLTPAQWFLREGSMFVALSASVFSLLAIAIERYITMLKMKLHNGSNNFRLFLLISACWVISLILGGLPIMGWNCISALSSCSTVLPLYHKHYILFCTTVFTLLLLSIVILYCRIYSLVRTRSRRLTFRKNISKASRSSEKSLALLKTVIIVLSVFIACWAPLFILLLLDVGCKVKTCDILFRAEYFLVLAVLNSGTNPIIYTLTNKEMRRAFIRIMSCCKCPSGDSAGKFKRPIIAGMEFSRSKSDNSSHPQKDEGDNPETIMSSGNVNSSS
T5 sequence (O95136 whole entry): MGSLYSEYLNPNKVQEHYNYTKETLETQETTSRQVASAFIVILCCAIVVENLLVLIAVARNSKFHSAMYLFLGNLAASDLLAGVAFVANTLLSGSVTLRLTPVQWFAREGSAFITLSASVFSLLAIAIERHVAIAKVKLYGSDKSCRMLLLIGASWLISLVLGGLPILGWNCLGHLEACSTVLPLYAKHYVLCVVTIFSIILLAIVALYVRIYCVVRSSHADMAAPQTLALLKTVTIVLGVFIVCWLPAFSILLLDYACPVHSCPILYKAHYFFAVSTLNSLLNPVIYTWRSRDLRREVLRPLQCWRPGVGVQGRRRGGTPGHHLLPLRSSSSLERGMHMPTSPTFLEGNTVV
T6 sequence (Q9H228 whole entry): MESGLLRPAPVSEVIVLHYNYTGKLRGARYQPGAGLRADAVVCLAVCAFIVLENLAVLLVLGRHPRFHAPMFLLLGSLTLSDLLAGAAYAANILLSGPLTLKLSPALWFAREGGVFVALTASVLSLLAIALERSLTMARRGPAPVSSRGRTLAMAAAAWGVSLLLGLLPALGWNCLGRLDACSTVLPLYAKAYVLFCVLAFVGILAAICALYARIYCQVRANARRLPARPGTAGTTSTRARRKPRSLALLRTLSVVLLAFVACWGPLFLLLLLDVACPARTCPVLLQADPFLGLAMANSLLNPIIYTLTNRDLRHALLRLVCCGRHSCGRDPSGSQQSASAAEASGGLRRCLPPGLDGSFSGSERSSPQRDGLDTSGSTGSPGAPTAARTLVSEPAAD
T2 sequence (P31389 whole entry): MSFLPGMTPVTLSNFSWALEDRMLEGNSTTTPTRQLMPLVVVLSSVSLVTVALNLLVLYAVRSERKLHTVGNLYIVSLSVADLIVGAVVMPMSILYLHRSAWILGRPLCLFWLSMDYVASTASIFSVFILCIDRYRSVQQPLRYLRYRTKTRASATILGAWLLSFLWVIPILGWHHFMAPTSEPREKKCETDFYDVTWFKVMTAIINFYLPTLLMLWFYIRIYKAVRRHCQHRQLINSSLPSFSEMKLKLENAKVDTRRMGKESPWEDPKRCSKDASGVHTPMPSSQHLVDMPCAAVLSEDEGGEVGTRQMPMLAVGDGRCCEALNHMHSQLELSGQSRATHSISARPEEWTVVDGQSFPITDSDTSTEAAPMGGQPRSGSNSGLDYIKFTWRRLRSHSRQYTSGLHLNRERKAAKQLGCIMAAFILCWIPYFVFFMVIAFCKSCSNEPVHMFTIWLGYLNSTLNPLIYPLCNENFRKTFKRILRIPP

As for `Cc1c(-c2ccccc2)nc2ccccc2c1C(=O)NCc1ccc(F)cc1` [Compound 101, 3-methyl-2-phenyl-quinoline-4-carboxylic acid 4-fluoro-benzylamide], the “inhibition of S1P-stimulated calcium increases, Edg-1” value in [1] was “did not inhibit”. In experiment [2], the “activity in standard binding assay, Histamine H1, Central” value was “no activity”. Moreover, the “inhibition of Edg-3 stimulated S1P responses (Edg-3 receptors)” value in experiment [3] is recorded as “demonstrate inhibition; also recorded: specifically inhibited”. Moreover, in experiment [4], the “activity in standard binding assay, Calcium Channel Type L, Dihydropyridine” value is on record as “no activity”. Also, the “inhibition of LPA-stimulated calcium increases, Edg-2” value in experiment [5] is given as “did not inhibit”. Also, the “inhibition of S1P-stimulated calcium increases, Edg-5” value in experiment [6] is given as “did not inhibit”. The “inhibition of S1P-stimulated calcium increases, Edg-8” value in experiment [7] is on record as “did not inhibit”. For the same molecule, in [8], the “activity in standard binding assay, Adrenergic β” value is reported as “no activity”. Besides, the “inhibition of LPA-stimulated calcium increases, Edg-7” value in experiment [9] is recorded as “did not inhibit”.
